Experiments:
Assay type in all cases: in vivo
[1] = system: Italian ryegrass (Lolium multiflorum); assay: Test A preemergence, visual plant response rating; details: for Ryegrass, Italian plant response rating: 125 g ai/ha, preemergence, 0 to 100 scale, 0 no effect, 100 complete control; for Ryegrass, Italian plant response rating (0 to 100 scale): 500 g ai/ha Preemergence, approx. 10 days
In short: (§1)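 Compared with untreated controls, treated plants received a visual injury score on a 0–100 scale around 10 days after application. The compound, in a non-phytotoxic solvent with surfactant, was given as a preemergence soil spray or postemergence at the one- to two-leaf stage.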

[2] = system: pigweed (Amaranthus retroflexus); assay: Test A preemergence, visual plant response rating; details: for Pigweed plant response rating: 125 g ai/ha, preemergence, 0 to 100 scale, 0 no effect, 100 complete control; for Pigweed plant response rating (0 to 100 scale): 500 g ai/ha Preemergence, approx. 10 days
In short: as §1

[3] = system: ragweed (common ragweed, Ambrosia elatior); assay: Test A preemergence, visual plant response rating; details: for Ragweed plant response rating: 125 g ai/ha, preemergence, 0 to 100 scale, 0 no effect, 100 complete control; for Ragweed plant response rating (0 to 100 scale): 500 g ai/ha Preemergence, approx. 10 days
In short: as §1

[4] = system: foxtail, giant (giant foxtail, Setaria faberii); assay: Test A preemergence, visual plant response rating; details: for Foxtail, Giant plant response rating: 125 g ai/ha, preemergence, 0 to 100 scale, 0 no effect, 100 complete control; for Foxtail, Giant plant response rating (0 to 100 scale): 500 g ai/ha Preemergence, approx. 10 days
In short: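 Ratings 0–100 (100 = complete control), visual, vs untreated controls at ~10 days. Application pre- or postemergence; solvent mixture with surfactant; loam/sand medium.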

[5] = system: barnyardgrass (Echinochloa crus-galli); assay: Test A preemergence, visual plant response rating; details: for Barnyardgrass plant response rating: 125 g ai/ha, preemergence, 0 to 100 scale, 0 no effect, 100 complete control; for Barnyardgrass plant response rating (0 to 100 scale): 500 g ai/ha Preemergence, approx. 10 days
In short: as §1

kochia (Kochia scoparia) [6] = assay: Test A preemergence, visual plant response rating; details: for Kochia plant response rating: 125 g ai/ha, preemergence, 0 to 100 scale, 0 no effect, 100 complete control; for Kochia plant response rating (0 to 100 scale): 500 g ai/ha Preemergence, approx. 10 days
In short: as §1

[7] = system: sedge, umbrella (small-flower umbrella sedge, Cyperus difformis); assay: Test B flooded paddy test, visual plant response rating; details: 250 g ai/ha, Flood, applied to paddy water, 2-leaf stage, evaluated after 13 to 15 days
In short: (§2)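 Visual scores compare treated plants with controls after 13 to 15 days of greenhouse growth. Treatment was made into paddy water standing 3 cm above the soil, with plants at the 2-leaf stage and flooding maintained throughout.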

[8] = system: ducksalad (Heteranhera limosa); assay: as above; details: 250 g ai/ha, Flood, applied to paddy water, 2-leaf stage, evaluated after 13 to 15 days
In short: as §2

[9] = system: barnyardgrass (Echinochloa crus-galli); assay: as above; details: 250 g ai/ha, Flood, applied to paddy water, 2-leaf stage, evaluated after 13 to 15 days
In short: as §2

rice (Oryza sativa) = assay: as above; details: 250 g ai/ha, Flood, applied to paddy water, 2-leaf stage, evaluated after 13 to 15 days
In short: as §2

[10] = system: Italian ryegrass (Lolium multiflorum); assay: Test A postemergence, visual plant response rating; details: for Ryegrass, Italian plant response rating (0 to 100 scale): 500 g ai/ha, postemergence, 0 is no effect, 100 is complete control; for Ryegrass, Italian plant response rating: Postemergence, 125 g ai/ha, 0 to 100 scale (0 no effect, 100 complete control)
In short: as §1

[11] = system: pigweed (Amaranthus retroflexus); assay: Test A postemergence, visual plant response rating; details: for Pigweed plant response rating (0 to 100 scale): 500 g ai/ha, postemergence, 0 is no effect, 100 is complete control; for Pigweed plant response rating: Postemergence, 125 g ai/ha, 0 to 100 scale (0 no effect, 100 complete control)
In short: as §1

[12] = system: ragweed (common ragweed, Ambrosia elatior); assay: Test A postemergence, visual plant response rating; details: for Ragweed plant response rating (0 to 100 scale): 500 g ai/ha, postemergence, 0 is no effect, 100 is complete control; for Ragweed plant response rating: Postemergence, 125 g ai/ha, 0 to 100 scale (0 no effect, 100 complete control)
In short: as §1

[13] = system: foxtail, giant (giant foxtail, Setaria faberii); assay: Test A postemergence, visual plant response rating; details: for Foxtail, Giant plant response rating (0 to 100 scale): 500 g ai/ha, postemergence, 0 is no effect, 100 is complete control; for Foxtail, Giant plant response rating: Postemergence, 125 g ai/ha, 0 to 100 scale (0 no effect, 100 complete control)
In short: as §1

corn (Zea mays) = assay: Test A postemergence, visual plant response rating; details: for Corn plant response rating (0 to 100 scale): 500 g ai/ha, postemergence, 0 is no effect, 100 is complete control; for Corn plant response rating: Postemergence, 125 g ai/ha, 0 to 100 scale (0 no effect, 100 complete control)
In short: as §1

[14] = system: barnyardgrass (Echinochloa crus-galli); assay: Test A postemergence, visual plant response rating; details: for Barnyardgrass plant response rating (0 to 100 scale): 500 g ai/ha, postemergence, 0 is no effect, 100 is complete control; for Barnyardgrass plant response rating: Postemergence, 125 g ai/ha, 0 to 100 scale (0 no effect, 100 complete control)
In short: as §1

[15] = system: wheat (Triticum aestivum); assay: Test A postemergence, visual plant response rating; details: for Wheat plant response rating (0 to 100 scale): 500 g ai/ha, postemergence, 0 is no effect, 100 is complete control; for Wheat plant response rating: Postemergence, 125 g ai/ha, 0 to 100 scale (0 no effect, 100 complete control)
In short: as §1

[16] = system: galium (catchweed bedstraw, Galium aparine); assay: Test A postemergence, visual plant response rating; details: for Galium plant response rating (0 to 100 scale): 500 g ai/ha, postemergence, 0 is no effect, 100 is complete control; for Galium plant response rating: Postemergence, 125 g ai/ha, 0 to 100 scale (0 no effect, 100 complete control)
In short: as §1

kochia (Kochia scoparia) [17] = assay: Test A postemergence, visual plant response rating; details: for Kochia plant response rating (0 to 100 scale): 500 g ai/ha, postemergence, 0 is no effect, 100 is complete control; for Kochia plant response rating: Postemergence, 125 g ai/ha, 0 to 100 scale (0 no effect, 100 complete control)
In short: as §1

[18] = system: blackgrass (Alopecurus myosuroides); assay: Test A postemergence, visual plant response rating; details: for Blackgrass plant response rating (0 to 100 scale): 500 g ai/ha, postemergence, 0 is no effect, 100 is complete control; for Blackgrass plant response rating: Postemergence, 125 g ai/ha, 0 to 100 scale (0 no effect, 100 complete control)
In short: as §1

Row | Structure (SMILES) | Ryegrass, Italian plant response rating [1] | Ryegrass, Italian plant response rating (0 to 100 scale) [1] | Pigweed plant response rating [2] | Pigweed plant response rating (0 to 100 scale) [2] | Ragweed plant response rating [3] | Ragweed plant response rating (0 to 100 scale) [3] | Foxtail, Giant plant response rating [4] | Foxtail, Giant plant response rating (0 to 100 scale) [4] | Barnyardgrass plant response rating [5] | Barnyardgrass plant response rating (0 to 100 scale) [5] | Kochia plant response rating (kochia (Kochia scoparia) [6]) | Kochia plant response rating (0 to 100 scale) (kochia (Kochia scoparia) [6]) | Plant response rating, Sedge, Umbrella (0 to 100 scale, 0 is no effect, 100 is complete control) [7] | Plant response rating, Ducksalad (0 to 100 scale, 0 is no effect, 100 is complete control) [8] | Plant response rating, Barnyardgrass (0 to 100 scale, 0 is no effect, 100 is complete control) [9] | Plant response rating, Rice (0 to 100 scale, 0 is no effect, 100 is complete control) (rice (Oryza sativa)) | Ryegrass, Italian plant response rating (0 to 100 scale) [10] | Ryegrass, Italian plant response rating [10] | Pigweed plant response rating (0 to 100 scale) [11] | Pigweed plant response rating [11] | other results
1 | CO/N=C(/c1ccsc1C)c1c(O)c(C)nn(C)c1=O [Compound 135] | 0 | 0 | 0 | 20 | 0 | 10 | 0 | 0 | 0 | 0 | 0 | 10 | 0 | 0 | 0 | 0 | 30 | 0 | 30 | 20 | Ragweed plant response rating (0 to 100 scale) [12]: 20; Ragweed plant response rating [12]: 0; Foxtail, Giant plant response rating (0 to 100 scale) [13]: 0; Foxtail, Giant plant response rating [13]: 0; Corn plant response rating (0 to 100 scale) (corn (Zea mays)): 0; Corn plant response rating (corn (Zea mays)): 0; Barnyardgrass plant response rating (0 to 100 scale) [14]: 0; Barnyardgrass plant response rating [14]: 0; Wheat plant response rating (0 to 100 scale) [15]: 0; Wheat plant response rating [15]: 0; Galium plant response rating (0 to 100 scale) [16]: 40; Galium plant response rating [16]: 30; Kochia plant response rating (0 to 100 scale) (kochia (Kochia scoparia) [17]): 10; Kochia plant response rating (kochia (Kochia scoparia) [17]): 0; Blackgrass plant response rating (0 to 100 scale) [18]: 0; Blackgrass plant response rating [18]: 0
2 | CO/N=C(/c1ccccc1F)c1c(O)c(C)nn(C)c1=O [Compound 62] | 10 | 40 | 0 | 0 | 0 | 30 | 0 | 0 | 0 | 0 | 0 | 0 | 0 | 0 | 0 | 0 | 20 | 0 | 30 | 10 | Ragweed plant response rating (0 to 100 scale) [12]: 40; Ragweed plant response rating [12]: 20; Foxtail, Giant plant response rating (0 to 100 scale) [13]: 10; Foxtail, Giant plant response rating [13]: 0; Corn plant response rating (0 to 100 scale) (corn (Zea mays)): 0; Corn plant response rating (corn (Zea mays)): 0; Barnyardgrass plant response rating (0 to 100 scale) [14]: 0; Barnyardgrass plant response rating [14]: 0; Wheat plant response rating (0 to 100 scale) [15]: 0; Wheat plant response rating [15]: 0; Galium plant response rating (0 to 100 scale) [16]: 70; Galium plant response rating [16]: 20; Kochia plant response rating (0 to 100 scale) (kochia (Kochia scoparia) [17]): 20; Kochia plant response rating (kochia (Kochia scoparia) [17]): 0; Blackgrass plant response rating (0 to 100 scale) [18]: 10; Blackgrass plant response rating [18]: 10

From US20210045385A1, “PYRIDAZINONE-SUBSTITUTED KETOXIMES AS HERBICIDES” (FMC Corporation, priority 2018, published 2021)
